Reference: US20140309229A1, “METHODS FOR SELECTING AND TREATING CANCER IN PATIENTS WITH IGF-1R/IR INHIBITORS” (priority 2011, published 2014)

Assays:
Experiment in all cases: MTS proliferation assay
Format in all cases: cell-based, human
[1] = system: NCI-H508
Method: (§1) Cell lines and in vitro cytotoxicity assay. Cells were maintained at 37° C. under standard cell culture conditions. Cells were plated at an optimized density for each cell line per well in 96-well microtiter FALCON® plates, incubated overnight, and then exposed to a serial dilution of drug. […] The results were expressed as an IC50, which is the drug concentration required to inhibit cell proliferation to 50% of that of untreated control cells. The mean IC50 and standard deviation (SD) from multiple tests for each cell line were calculated.
(§2) In vitro Cellular Proliferation Assays.

[2] = system: CW-2
Method: as §1, §2

[3] = system: GEO
Method: as §1, §2

[4] = system: SNU-61
Method: as §1, §2

[5] = system: SW1417
Method: as §1, §2

[6] = system: T84
Method: as §1, §2

[7] = system: WIDR
Method: as §1, §2

[8] = system: KM12SM
Method: as §1, §2

[9] = system: HCT116SS42
Method: as §1, §2

[10] = system: LS-513
Method: as §1, §2

[11] = system: RKO PM
Method: as §1, §2

[12] = system: SW948
Method: as §1, §2

[13] = system: HCT8
Method: as §1, §2

[14] = system: NCI-H716
Method: as §1, §2

[15] = system: HT-29
Method: as §1, §2

[16] = system: COLO320DM
Method: as §1, §2

[17] = system: LS-180
Method: as §1, §2

[18] = system: KM12C
Method: as §1, §2

[19] = system: OUMS-23
Method: as §1, §2

[20] = system: COLO-201
Method: as §1, §2

[21] = system: SW1116
Method: as §1, §2

[22] = system: SW1463
Method: as §1, §2

[23] = system: SNU-C2B
Method: as §1, §2

[24] = system: NCI-H747
Method: as §1, §2

[25] = system: LS-1034
Method: as §1, §2

[26] = system: LoVo
Method: as §1, §2

[27] = system: COLO-205
Method: as §1, §2

[28] = system: SNU-81
Method: as §1, §2

## C[C@@]1(C(=O)Nc2ccc(F)nc2)CCCN1c1nc(Nc2cc(C3CC3)n[nH]2)c2cccn2n1 [BMS-754807, (2S)-1-(4-((5-cyclopropyl-1H-pyrazol-3-yl)amino)pyrrolo[2,1-f][1,2,4]triazin-2-yl)-N-(6-fluoro-3-pyridinyl)-2-methyl-2-pyrrolidinecarboxamide]
[1]; H508, preliminary panel of 45 CRC cell lines
  Sensitivity to BMS-754807: Sensitive (a sensitive cell line was classified as one with an IC50 of ≦50 nmol/L)
[1]; Homo sapiens, NCI-H508, 72 h
  IC50: 0.011 µM
[1]; NCI-H508
  Sensitivity Classes: S (“S” refers Sensitive)
[2]; CW-2
  Sensitivity Classes: R (“R” refers Resistant)
[2]; Homo sapiens, CW-2, 72 h
  IC50: 0.586 µM
[3]; GEO
  Sensitivity Classes: R (“R” refers Resistant)
[3]; GEO, preliminary panel of 45 CRC cell lines
  Sensitivity to BMS-754807: Intermediate (remaining 30 cell lines classified as Intermediate or resistant)
[3]; Homo sapiens, 72 h
  IC50: 0.407 µM
[4]; Homo sapiens, 72 h
  IC50: 0.035 µM
[4]; SNU-61
  Sensitivity Classes: S (“S” refers Sensitive)
[5]; Homo sapiens, SW1417, 72 h
  IC50: 0.106 µM
[5]; SW1417
  Sensitivity Classes: R (“R” refers Resistant)
[5]; SW1417, preliminary panel of 45 CRC cell lines
  Sensitivity to BMS-754807: Intermediate (remaining 30 cell lines classified as Intermediate or resistant)
[6]; Homo sapiens, T84, 72 h
  IC50: 5.2 µM
[6]; T84
  Sensitivity Classes: R (“R” refers Resistant)
[6]; T84, preliminary panel of 45 CRC cell lines
  Sensitivity to BMS-754807: Resistant (resistant cell lines had IC50 values of >50 nmol/L)
[7]; Homo sapiens, WiDr, 72 h
  IC50: 0.194 µM
[7]; WIDR
  Sensitivity Classes: R (“R” refers Resistant)
[7]; WIDR, preliminary panel of 45 CRC cell lines
  Sensitivity to BMS-754807: Intermediate (remaining 30 cell lines classified as Intermediate or resistant)
[8]; Homo sapiens, 72 h
  IC50: 0.037 µM
[8]; KM12SM
  Sensitivity Classes: S (“S” refers Sensitive)
[8]; KM12SM, preliminary panel of 45 CRC cell lines
  Sensitivity to BMS-754807: Sensitive (a sensitive cell line was classified as one with an IC50 of ≦50 nmol/L)
[9]; HCT116SS42
  Sensitivity Classes: R (“R” refers Resistant)
[9]; HCT116SS42, preliminary panel of 45 CRC cell lines
  Sensitivity to BMS-754807: Intermediate (remaining 30 cell lines classified as Intermediate or resistant)
[9]; Homo sapiens, 72 h
  IC50: 0.427 µM
[10]; Homo sapiens, LS-513, 72 h
  IC50: 0.015 µM
[10]; LS513, preliminary panel of 45 CRC cell lines
  Sensitivity to BMS-754807: Sensitive (a sensitive cell line was classified as one with an IC50 of ≦50 nmol/L)
[10]; LS-513
  Sensitivity Classes: S (“S” refers Sensitive)
[11]; Homo sapiens, 72 h
  IC50: 0.857 µM
[11]; RKO PM
  Sensitivity Classes: R (“R” refers Resistant)
[11]; RKO PM, preliminary panel of 45 CRC cell lines
  Sensitivity to BMS-754807: Resistant (resistant cell lines had IC50 values of >50 nmol/L)
[12]; Homo sapiens, SW948, 72 h
  IC50: 0.018 µM
[12]; SW948
  Sensitivity Classes: S (“S” refers Sensitive)
[12]; SW948, preliminary panel of 45 CRC cell lines
  Sensitivity to BMS-754807: Sensitive (a sensitive cell line was classified as one with an IC50 of ≦50 nmol/L)
[13]; HCT8
  Sensitivity Classes: R (“R” refers Resistant)
[13]; HCT8, preliminary panel of 45 CRC cell lines
  Sensitivity to BMS-754807: Resistant (resistant cell lines had IC50 values of >50 nmol/L)
[13]; Homo sapiens, HCT-8, 72 h
  IC50: 4.86 µM
[14]; Homo sapiens, NCI-H716, 72 h
  IC50: 0.217 µM
[14]; NCI-H716
  Sensitivity Classes: R (“R” refers Resistant)
[14]; NCI-H716, preliminary panel of 45 CRC cell lines
  Sensitivity to BMS-754807: Intermediate (remaining 30 cell lines classified as Intermediate or resistant)
[15]; HT29, preliminary panel of 45 CRC cell lines
  Sensitivity to BMS-754807: Intermediate (remaining 30 cell lines classified as Intermediate or resistant)
[15]; HT-29
  Sensitivity Classes: R (“R” refers Resistant)
[15]; Homo sapiens, HT-29, 72 h
  IC50: 0.451 µM
[16]; COLO320DM
  Sensitivity Classes: S (“S” refers Sensitive)
[16]; COLO320DM, preliminary panel of 45 CRC cell lines
  Sensitivity to BMS-754807: Sensitive (a sensitive cell line was classified as one with an IC50 of ≦50 nmol/L)
[16]; Homo sapiens, COLO 320DM, 72 h
  IC50: 0.041 µM
[17]; Homo sapiens, LS180, 72 h
  IC50: 0.629 µM
[17]; LS180, preliminary panel of 45 CRC cell lines
  Sensitivity to BMS-754807: Resistant (resistant cell lines had IC50 values of >50 nmol/L)
[17]; LS-180
  Sensitivity Classes: R (“R” refers Resistant)
[18]
  Sensitivity Classes: S (“S” refers Sensitive)
[18]; Homo sapiens, 72 h
  IC50: 0.033 µM
[18]; preliminary panel of 45 CRC cell lines
  Sensitivity to BMS-754807: Sensitive (a sensitive cell line was classified as one with an IC50 of ≦50 nmol/L)
[19]; Homo sapiens, OUMS-23, 72 h
  IC50: 2.22 µM
[19]; OUMS-23
  Sensitivity Classes: R (“R” refers Resistant)
[20]; COLO201, preliminary panel of 45 CRC cell lines
  Sensitivity to BMS-754807: Resistant (resistant cell lines had IC50 values of >50 nmol/L)
[20]; COLO-201
  Sensitivity Classes: R (“R” refers Resistant)
[20]; Homo sapiens, COLO 201, 72 h
  IC50: 2.76 µM
[21]; Homo sapiens, SW 1116, 72 h
  IC50: 0.024 µM
[21]; SW1116
  Sensitivity Classes: S (“S” refers Sensitive)
[21]; SW1116, preliminary panel of 45 CRC cell lines
  Sensitivity to BMS-754807: Sensitive (a sensitive cell line was classified as one with an IC50 of ≦50 nmol/L)
[22]; Homo sapiens, SW1463, 72 h
  IC50: 0.016 µM
[22]; SW1463
  Sensitivity Classes: S (“S” refers Sensitive)
[22]; SW1463, preliminary panel of 45 CRC cell lines
  Sensitivity to BMS-754807: Sensitive (a sensitive cell line was classified as one with an IC50 of ≦50 nmol/L)
[23]; Homo sapiens, SNU-C2B, 72 h
  IC50: 1.48 µM
[23]; SNU-C2B
  Sensitivity Classes: R (“R” refers Resistant)
[23]; SNUC2B, preliminary panel of 45 CRC cell lines
  Sensitivity to BMS-754807: Resistant (resistant cell lines had IC50 values of >50 nmol/L)
[24]; Homo sapiens, NCI-H747, 72 h
  IC50: 1.16 µM
[24]; NCI-H747
  Sensitivity Classes: R (“R” refers Resistant)
[24]; NCI-H747, preliminary panel of 45 CRC cell lines
  Sensitivity to BMS-754807: Resistant (resistant cell lines had IC50 values of >50 nmol/L)
[25]; Homo sapiens, LS-1034, 72 h
  IC50: 0.044 µM
[25]; LS1034, preliminary panel of 45 CRC cell lines
  Sensitivity to BMS-754807: Sensitive (a sensitive cell line was classified as one with an IC50 of ≦50 nmol/L)
[25]; LS-1034
  Sensitivity Classes: S (“S” refers Sensitive)
[26]; Homo sapiens, LoVo, 72 h
  IC50: 3.87 µM
[26]; LOVO, preliminary panel of 45 CRC cell lines
  Sensitivity to BMS-754807: Resistant (resistant cell lines had IC50 values of >50 nmol/L)
[26]; LoVo
  Sensitivity Classes: R (“R” refers Resistant)
[27]; COLO205, preliminary panel of 45 CRC cell lines
  Sensitivity to BMS-754807: Intermediate (remaining 30 cell lines classified as Intermediate or resistant)
[27]; COLO-205
  Sensitivity Classes: R (“R” refers Resistant)
[27]; Homo sapiens, COLO 205, 72 h
  IC50: 0.242 µM
[28]; Homo sapiens, 72 h
  IC50: 5 µM
[28]; SNU-81
  Sensitivity Classes: R (“R” refers Resistant)
